From ChEMBL document CHEMBL1201862, “PubChem BioAssay data set” (2004)
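Interpolation was linear, between the two tested concentrations surrounding the appropriate level; five concentrations were tested over 48 hours in 96-well plates. The concentration for 50% growth inhibition is given as GI50.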 The source made the active and inactive calls. Cut-off read from the data, not from the text of the source: active = GI50 up to about 1.1 µM and inactive = higher.

What was measured:
Experiment in all cases: NCI-60 cell line screen, 48 h
[1] = test system: KM12
[2] = test system: SF-268
[3] = test system: LOX IMVI
[4] = test system: SN12C
[5] = test system: OVCAR-4
[6] = test system: EKVX
[7] = test system: UACC-62
[8] = test system: HT-29
[9] = test system: SK-MEL-5
[10] = test system: SF-295
[11] = test system: M14
[12] = test system: IGROV-1
[13] = test system: OVCAR-3
[14] = test system: OVCAR-5
[15] = test system: Malme-3M
[16] = test system: HL-60
[17] = test system: CCRF-CEM
[18] = test system: K562
[19] = test system: MCF7
[20] = test system: NCI/ADR-RES

| Compound | GI50 [1] | GI50 [2] | GI50 [3] | GI50 [4] | GI50 [5] | GI50 [6] | GI50 [7] | GI50 [8] | GI50 [9] | GI50 [10] | GI50 [11] | GI50 [12] | GI50 [13] | GI50 [14] | GI50 [15] | GI50 [16] | GI50 [17] | GI50 [18] | GI50 [19] | GI50 [20] |
| --- | --- | --- | --- | --- | --- | --- | --- | --- | --- | --- | --- | --- | --- | --- | --- | --- | --- | --- | --- | --- |
| O=C(O)C1CCC(=O)N1C(=O)COc1cc(Cl)c(Cl)cc1Cl (centres undefined) | > 100 µM (inactive) | > 100 µM (inactive) | > 100 µM (inactive) | > 100 µM (inactive) | > 100 µM (inactive) | > 100 µM (inactive) | > 100 µM (inactive) | > 100 µM (inactive) | > 100 µM (inactive) | > 100 µM (inactive) | > 100 µM (inactive) | > 100 µM (inactive) | > 100 µM (inactive) | > 100 µM (inactive) |  |  |  |  |  |  |
| CC1=CC[C@H](C)C(C)(C)C1/C=C/C(C)=C/CC[C@@]1(CO)[C@H](CCCO)/C(=C(/C)C=O)CC[C@]1(C)O (some centres undefined) | 1.61 µM (inactive) | 7.46 µM (inactive) | 0.824 µM (active) | 5.68 µM (inactive) |  | 2.2 µM (inactive) |  | 2.77 µM (inactive) | 0.513 µM (active) | 1.23 µM (inactive) | 2.07 µM (inactive) | 11.7 µM (inactive) |  | 23.6 µM (inactive) | 3.27 µM (inactive) | 0.897 µM (active) | 4.21 µM (inactive) | 1.31 µM (inactive) |  |  |
| N#Cc1ccccc1NC(=O)C(=O)C(C(=O)c1ccccc1F)C1OC(=O)c2ccccc21 (centres undefined) | 41.2 µM (inactive) | 40.1 µM (inactive) | 21.9 µM (inactive) | 28.2 µM (inactive) | 65 µM (inactive) | 45.5 µM (inactive) | 41 µM (inactive) | 40 µM (inactive) | 89.3 µM (inactive) | 55.1 µM (inactive) | 82 µM (inactive) | 86.1 µM (inactive) |  | 65.6 µM (inactive) |  | 20.9 µM (inactive) | 15.1 µM (inactive) | 36.7 µM (inactive) |  |  |
| CCOC(=O)C(OP(=O)(OCC)OCC)C(F)(F)F (centres undefined) | > 100 µM (inactive) | > 100 µM (inactive) | > 100 µM (inactive) | > 100 µM (inactive) |  | > 100 µM (inactive) | > 100 µM (inactive) | > 100 µM (inactive) |  |  | > 100 µM (inactive) |  | > 100 µM (inactive) | > 100 µM (inactive) | > 100 µM (inactive) | > 100 µM (inactive) | > 100 µM (inactive) | > 100 µM (inactive) | > 100 µM (inactive) |  |
| Clc1ccccc1/C=C/c1cscn1 | > 100 µM (inactive) | > 100 µM (inactive) | > 100 µM (inactive) | > 100 µM (inactive) | > 100 µM (inactive) | > 100 µM (inactive) | > 100 µM (inactive) | > 100 µM (inactive) |  |  | > 100 µM (inactive) |  | > 100 µM (inactive) | > 100 µM (inactive) | > 100 µM (inactive) | > 100 µM (inactive) | > 100 µM (inactive) | > 100 µM (inactive) |  |  |
| Cc1ccc(NC(=O)S(N)(c2ccc(C)cc2)[N+](=O)[O-])cc1 (centres undefined) | > 100 µM (inactive) |  | > 100 µM (inactive) | > 100 µM (inactive) | > 100 µM (inactive) |  | > 100 µM (inactive) | > 100 µM (inactive) | > 100 µM (inactive) | > 100 µM (inactive) | > 100 µM (inactive) | > 100 µM (inactive) | > 100 µM (inactive) | > 100 µM (inactive) | > 100 µM (inactive) | 10 µM (inactive) | > 100 µM (inactive) | 8.87 µM (inactive) | > 100 µM (inactive) | > 100 µM (inactive) |
| Cc1cccc(C(O)c2cccnc2)c1O (centres undefined) | > 100 µM (inactive) | > 100 µM (inactive) | > 100 µM (inactive) | > 100 µM (inactive) |  | > 100 µM (inactive) | 35.7 µM (inactive) | > 100 µM (inactive) | 76.4 µM (inactive) | > 100 µM (inactive) |  | > 100 µM (inactive) | > 100 µM (inactive) | 39.2 µM (inactive) | > 100 µM (inactive) | > 100 µM (inactive) | > 100 µM (inactive) | > 100 µM (inactive) | > 100 µM (inactive) | > 100 µM (inactive) |
| O=C(c1ccccc1)C1C(c2ccccc2)N1S(=O)(=O)c1ccccc1 (centres undefined) | > 100 µM (inactive) | > 100 µM (inactive) | > 100 µM (inactive) | > 100 µM (inactive) | > 100 µM (inactive) | > 100 µM (inactive) | > 100 µM (inactive) | > 100 µM (inactive) | > 100 µM (inactive) | > 100 µM (inactive) | > 100 µM (inactive) | > 100 µM (inactive) | > 100 µM (inactive) | > 100 µM (inactive) | > 100 µM (inactive) |  | > 100 µM (inactive) | > 100 µM (inactive) | > 100 µM (inactive) | > 100 µM (inactive) |
| O=c1c(-c2ccccc2)c(SCCN2CCCCCC2)n(-c2ccccc2)c(=S)n1-c1ccccc1 | 27.3 µM (inactive) |  | 50.7 µM (inactive) |  | 15.5 µM (inactive) | 17.7 µM (inactive) | 48.9 µM (inactive) |  | 23.2 µM (inactive) | 83.9 µM (inactive) |  | 45.8 µM (inactive) | 32.7 µM (inactive) | 21.1 µM (inactive) | 12.5 µM (inactive) | 11 µM (inactive) | 8.45 µM (inactive) | 19.6 µM (inactive) | 24.9 µM (inactive) | 68.2 µM (inactive) |
| CC(C)=CCC(OC(=O)C=C(C)C)c1cc(O)c2c(c1O)C(=O)C=CC2=O (centres undefined) | 2.42 µM (inactive) | 1.39 µM (inactive) | 0.261 µM (active) | 1.04 µM (active) | 0.78 µM (active) | 0.933 µM (active) | 0.783 µM (active) | 1.67 µM (inactive) | 0.883 µM (active) | 2.95 µM (inactive) |  | 2.04 µM (inactive) | 0.839 µM (active) | 3.89 µM (inactive) | 0.428 µM (active) | 0.0419 µM (active) | 0.0208 µM (active) | 0.27 µM (active) |  | 0.406 µM (active) |
| Brc1ccccc1-c1ncc(-c2ccccc2)o1 | 17.4 µM (inactive) | 27.9 µM (inactive) | 17.1 µM (inactive) | 55.2 µM (inactive) | 29.4 µM (inactive) | 6.7 µM (inactive) | 32.2 µM (inactive) | 29.9 µM (inactive) | 18.1 µM (inactive) | 33.9 µM (inactive) | 29.6 µM (inactive) | 19.2 µM (inactive) | 22 µM (inactive) | 66.5 µM (inactive) | 26.7 µM (inactive) | 30.5 µM (inactive) | 24.9 µM (inactive) | 21.1 µM (inactive) | 3.47 µM (inactive) | 30.8 µM (inactive) |
